Reference: publication PMC6193938, “Characterization of a novel AICARFT inhibitor which potently elevates ZMP and has anti-tumor activity in murine models” (Scientific Reports, 2018)
Like-named read-outs stand apart in the source and are kept apart here.

Legend:
[1] = tested on: SNU-16 (gastric); experiment: MS detection of ZMP in cultured cells; format: cell-based; settings: Homo sapiens, 16 hours
Method: (§1) Cells lines were acquired from cell banks, see supplemental material, grown using the cell banks recommended culture conditions (Supplemental Table 3). In some experiments noted “low folate” the cells were washed and grown in folate free RPMI-1640 media (Gibco #27016-021) supplemented with 5 ml 1 M Hepes, 5 ml 100 mM Na pyruvate, 2.5 mg/ml glucose and 10% defined FBS (Hyclone #SH30070) per 500 mL media for 5–7 days to deplete intracellular folate levels prior to the start of the experiment. Where noted, cells were maintained in complete “high folate” RPMI-1640 media (ATCC #30-2001) with 10% defined FBS to contrast with the low folate conditions.
(§2) ZMP was detected in cultured cells via mass spec analysis. Cells were plated in 96-well plates at 25,000 cells per well in 100 µL with either high or low folate RPMI media and incubated overnight at 37 °C with 5% CO2. Cells were treated with inhibitor compounds for 16 hours, 0.5% DMSO final concentration. Growth media was decanted and cells were lysed for 10 min at room temperature with 50 µL per well of 1x Sure Fire Lysis buffer (Perkin Elmer, SureFire kit component). Aliquots (40 µL) of standard or sample were combined in a deep 96-well plate with 160 µL of internal standard solution containing ^13C5-ZMP (custom synthesis) and ^13C5-AICAr (custom synthesis) at 100 ng/mL in 40 mM ammonium acetate, pH 4. 400 µL of dichloromethane was added to each sample. Samples were sealed, vortexed for 5 minutes, and placed in the refrigerator for at least 30 minutes. The samples were centrifuged at 4 °C for 10 minutes at 16,600 g. 75 µL of the aqueous layer were transferred to a clean 96-well plate and seal prior to analysis.
(§3) The LC-MS method utilizes a Shimadzu Prominence 20 A HPLC system connected to an AB Sciex 5500™ or an AB Sciex 6500™ triple quadrupole mass spectrometer. Extracted samples were separated using a Thermo Hypercarb™ Javelin guard column (2.1 × 20 mm, 5 µm) with an injection volume of 15 µL and a flow rate of 1 mL/minute.
(§4) ZMP, AICAr and dUMP were detected using positive ion TurboIonSpray® multiple reaction monitoring mode and the data were processed with AB Sciex MultiQuant™. Back-calculated ZMP concentrations were fit to a four-parameter logistic equation using ACTIVITYBASE 4.0 to determine EC50 values relative to the maximum observed metabolite levels.

[2] = tested on: SW620 (colon); experiment: MS detection of ZMP in cultured cells; format: cell-based; settings: Homo sapiens, 16 hours
Method: as §1, §2, §3, §4

[3] = tested on: HCT 116 (colon); experiment: MS detection of ZMP in cultured cells; format: cell-based; settings: Homo sapiens, 16 hours
Method: as §1, §2, §3, §4

[4] = tested on: MIA PaCa-2 (pancreas); experiment: MS detection of ZMP in cultured cells; format: cell-based; settings: Homo sapiens, 16 hours
Method: as §1, §2, §3, §4

[5] = biological target: T1, DRAK1 (Homo sapiens, UniProt Q9UEE5); experiment: CEREP protein kinase assay; format: biochemical
T1 construct: purchased CEREP Panlabs (Eurofins)
T1 sequence (Q9UEE5 1-414): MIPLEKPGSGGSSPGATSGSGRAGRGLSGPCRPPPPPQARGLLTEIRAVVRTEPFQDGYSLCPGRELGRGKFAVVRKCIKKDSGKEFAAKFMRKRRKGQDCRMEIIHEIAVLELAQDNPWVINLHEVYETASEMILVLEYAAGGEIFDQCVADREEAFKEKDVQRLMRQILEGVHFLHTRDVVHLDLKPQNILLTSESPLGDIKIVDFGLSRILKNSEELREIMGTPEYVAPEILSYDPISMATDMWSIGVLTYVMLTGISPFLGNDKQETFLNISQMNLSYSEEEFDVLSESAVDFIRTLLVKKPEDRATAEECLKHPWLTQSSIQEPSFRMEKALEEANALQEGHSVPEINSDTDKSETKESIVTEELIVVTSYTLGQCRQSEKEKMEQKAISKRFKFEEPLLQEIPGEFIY

[6] = biological target: T2, RSK1 (Homo sapiens, UniProt Q15418); experiment: CEREP protein kinase assay; format: biochemical
T2 construct: purchased CEREP Panlabs (Eurofins)

[7] = biological target: T3, FGFR1 (Homo sapiens, UniProt P11362); experiment: CEREP protein kinase assay; format: biochemical
T3 construct: purchased CEREP Panlabs (Eurofins)

[8] = biological target: T4, AKT3 (Homo sapiens, UniProt Q9Y243); experiment: CEREP protein kinase assay; format: biochemical
T4 construct: purchased CEREP Panlabs (Eurofins)

[9] = biological target: T5, MNK2 (Homo sapiens, UniProt Q9HBH9); experiment: CEREP protein kinase assay; format: biochemical
T5 construct: purchased CEREP Panlabs (Eurofins)

[10] = biological target: T6, FER (Homo sapiens, UniProt P16591); experiment: CEREP protein kinase assay; format: biochemical
T6 construct: purchased CEREP Panlabs (Eurofins)

[11] = biological target: T7, JAK1 (Homo sapiens, UniProt P23458); experiment: CEREP protein kinase assay; format: biochemical
T7 construct: purchased CEREP Panlabs (Eurofins)

[12] = RPMI media, read-out: ZMP EC50 Regular folate
[13] = low folate RPMI media, read-out: ZMP EC50 Low folate

T2 sequence (Q15418 whole entry): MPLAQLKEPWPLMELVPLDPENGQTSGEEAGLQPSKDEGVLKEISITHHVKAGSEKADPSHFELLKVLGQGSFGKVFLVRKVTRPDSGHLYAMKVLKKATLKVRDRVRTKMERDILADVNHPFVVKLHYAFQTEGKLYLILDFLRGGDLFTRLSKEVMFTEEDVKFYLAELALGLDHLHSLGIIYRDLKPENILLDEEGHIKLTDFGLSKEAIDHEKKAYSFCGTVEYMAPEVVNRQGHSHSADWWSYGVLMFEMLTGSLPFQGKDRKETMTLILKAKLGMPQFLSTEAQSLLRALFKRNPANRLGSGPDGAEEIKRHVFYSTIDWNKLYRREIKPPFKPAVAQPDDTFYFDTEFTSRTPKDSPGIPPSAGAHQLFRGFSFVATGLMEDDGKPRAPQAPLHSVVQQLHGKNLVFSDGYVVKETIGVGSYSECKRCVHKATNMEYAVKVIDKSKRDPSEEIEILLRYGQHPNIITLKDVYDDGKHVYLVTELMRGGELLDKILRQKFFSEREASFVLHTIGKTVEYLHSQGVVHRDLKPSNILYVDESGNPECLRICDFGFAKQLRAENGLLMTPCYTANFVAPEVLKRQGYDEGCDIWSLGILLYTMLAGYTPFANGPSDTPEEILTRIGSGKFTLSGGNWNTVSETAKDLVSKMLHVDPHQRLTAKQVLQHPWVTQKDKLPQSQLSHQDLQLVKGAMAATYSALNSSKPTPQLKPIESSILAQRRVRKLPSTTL
T3 sequence (P11362 22-822): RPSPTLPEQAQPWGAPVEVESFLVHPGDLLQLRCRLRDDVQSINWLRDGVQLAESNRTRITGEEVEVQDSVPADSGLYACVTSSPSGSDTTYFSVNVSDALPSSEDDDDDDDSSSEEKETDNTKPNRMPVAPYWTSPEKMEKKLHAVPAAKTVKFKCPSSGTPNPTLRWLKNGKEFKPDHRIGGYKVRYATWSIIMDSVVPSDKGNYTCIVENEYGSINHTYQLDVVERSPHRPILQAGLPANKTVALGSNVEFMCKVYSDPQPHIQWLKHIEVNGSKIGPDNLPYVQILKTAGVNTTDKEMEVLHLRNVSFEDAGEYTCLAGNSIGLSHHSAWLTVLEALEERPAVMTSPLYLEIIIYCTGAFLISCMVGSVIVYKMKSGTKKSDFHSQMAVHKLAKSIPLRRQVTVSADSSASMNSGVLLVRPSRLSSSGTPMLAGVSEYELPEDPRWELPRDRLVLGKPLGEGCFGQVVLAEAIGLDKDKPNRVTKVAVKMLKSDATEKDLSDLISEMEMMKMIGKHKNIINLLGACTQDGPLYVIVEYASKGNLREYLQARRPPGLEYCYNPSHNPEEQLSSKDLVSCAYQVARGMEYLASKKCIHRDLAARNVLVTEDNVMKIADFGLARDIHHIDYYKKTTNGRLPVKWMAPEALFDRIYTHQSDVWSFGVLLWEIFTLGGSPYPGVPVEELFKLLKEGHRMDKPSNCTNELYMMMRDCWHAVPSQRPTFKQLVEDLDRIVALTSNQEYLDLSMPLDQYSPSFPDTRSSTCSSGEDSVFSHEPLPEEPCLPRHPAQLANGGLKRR
T5 sequence (Q9HBH9 whole entry): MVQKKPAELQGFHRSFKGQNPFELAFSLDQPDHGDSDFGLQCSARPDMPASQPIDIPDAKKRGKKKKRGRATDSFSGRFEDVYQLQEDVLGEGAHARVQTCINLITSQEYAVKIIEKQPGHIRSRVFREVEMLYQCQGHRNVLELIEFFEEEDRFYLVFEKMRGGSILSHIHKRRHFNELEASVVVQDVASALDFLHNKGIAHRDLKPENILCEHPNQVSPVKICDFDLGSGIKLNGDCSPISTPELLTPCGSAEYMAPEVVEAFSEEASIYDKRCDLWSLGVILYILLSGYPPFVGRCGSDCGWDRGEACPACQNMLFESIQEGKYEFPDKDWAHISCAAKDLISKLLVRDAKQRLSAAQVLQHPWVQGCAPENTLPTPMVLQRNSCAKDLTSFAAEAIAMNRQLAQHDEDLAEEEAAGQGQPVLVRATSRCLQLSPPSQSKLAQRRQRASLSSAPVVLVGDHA
T6 sequence (P16591 whole entry): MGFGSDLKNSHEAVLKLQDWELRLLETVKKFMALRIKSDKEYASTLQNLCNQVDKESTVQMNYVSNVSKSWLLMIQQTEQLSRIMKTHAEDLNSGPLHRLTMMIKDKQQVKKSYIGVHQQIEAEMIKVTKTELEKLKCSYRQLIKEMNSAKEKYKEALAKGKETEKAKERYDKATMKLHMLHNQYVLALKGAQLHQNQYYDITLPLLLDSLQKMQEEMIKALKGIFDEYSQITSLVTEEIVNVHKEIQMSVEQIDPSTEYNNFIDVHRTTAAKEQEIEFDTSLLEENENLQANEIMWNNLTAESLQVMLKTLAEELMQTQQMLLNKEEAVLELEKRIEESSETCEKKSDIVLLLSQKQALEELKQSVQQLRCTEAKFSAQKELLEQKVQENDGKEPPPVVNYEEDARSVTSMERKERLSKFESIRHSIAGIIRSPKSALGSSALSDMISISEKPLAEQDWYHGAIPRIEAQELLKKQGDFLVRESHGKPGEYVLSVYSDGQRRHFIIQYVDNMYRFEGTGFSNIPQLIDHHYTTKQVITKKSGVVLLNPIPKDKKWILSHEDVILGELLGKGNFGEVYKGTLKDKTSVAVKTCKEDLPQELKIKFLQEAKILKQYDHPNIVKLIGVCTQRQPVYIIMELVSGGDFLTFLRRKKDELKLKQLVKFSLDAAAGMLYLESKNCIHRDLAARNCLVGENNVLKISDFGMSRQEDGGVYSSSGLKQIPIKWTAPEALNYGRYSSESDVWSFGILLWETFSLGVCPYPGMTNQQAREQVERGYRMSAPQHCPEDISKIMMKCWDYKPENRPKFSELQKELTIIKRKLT
T4 sequence (Q9Y243 whole entry): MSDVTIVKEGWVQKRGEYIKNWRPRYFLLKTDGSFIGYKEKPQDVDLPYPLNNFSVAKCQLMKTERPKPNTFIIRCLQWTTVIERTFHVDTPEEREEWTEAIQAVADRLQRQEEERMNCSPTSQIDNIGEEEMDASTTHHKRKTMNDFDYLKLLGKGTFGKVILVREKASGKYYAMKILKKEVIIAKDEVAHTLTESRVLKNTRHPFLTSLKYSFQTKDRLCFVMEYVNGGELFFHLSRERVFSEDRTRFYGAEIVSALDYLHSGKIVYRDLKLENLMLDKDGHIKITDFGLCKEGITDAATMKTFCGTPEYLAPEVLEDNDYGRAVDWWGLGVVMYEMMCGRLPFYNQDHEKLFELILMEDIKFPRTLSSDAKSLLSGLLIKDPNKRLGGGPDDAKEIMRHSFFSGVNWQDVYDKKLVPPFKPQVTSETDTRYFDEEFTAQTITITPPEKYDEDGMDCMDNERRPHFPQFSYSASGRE
T7 sequence (P23458 whole entry): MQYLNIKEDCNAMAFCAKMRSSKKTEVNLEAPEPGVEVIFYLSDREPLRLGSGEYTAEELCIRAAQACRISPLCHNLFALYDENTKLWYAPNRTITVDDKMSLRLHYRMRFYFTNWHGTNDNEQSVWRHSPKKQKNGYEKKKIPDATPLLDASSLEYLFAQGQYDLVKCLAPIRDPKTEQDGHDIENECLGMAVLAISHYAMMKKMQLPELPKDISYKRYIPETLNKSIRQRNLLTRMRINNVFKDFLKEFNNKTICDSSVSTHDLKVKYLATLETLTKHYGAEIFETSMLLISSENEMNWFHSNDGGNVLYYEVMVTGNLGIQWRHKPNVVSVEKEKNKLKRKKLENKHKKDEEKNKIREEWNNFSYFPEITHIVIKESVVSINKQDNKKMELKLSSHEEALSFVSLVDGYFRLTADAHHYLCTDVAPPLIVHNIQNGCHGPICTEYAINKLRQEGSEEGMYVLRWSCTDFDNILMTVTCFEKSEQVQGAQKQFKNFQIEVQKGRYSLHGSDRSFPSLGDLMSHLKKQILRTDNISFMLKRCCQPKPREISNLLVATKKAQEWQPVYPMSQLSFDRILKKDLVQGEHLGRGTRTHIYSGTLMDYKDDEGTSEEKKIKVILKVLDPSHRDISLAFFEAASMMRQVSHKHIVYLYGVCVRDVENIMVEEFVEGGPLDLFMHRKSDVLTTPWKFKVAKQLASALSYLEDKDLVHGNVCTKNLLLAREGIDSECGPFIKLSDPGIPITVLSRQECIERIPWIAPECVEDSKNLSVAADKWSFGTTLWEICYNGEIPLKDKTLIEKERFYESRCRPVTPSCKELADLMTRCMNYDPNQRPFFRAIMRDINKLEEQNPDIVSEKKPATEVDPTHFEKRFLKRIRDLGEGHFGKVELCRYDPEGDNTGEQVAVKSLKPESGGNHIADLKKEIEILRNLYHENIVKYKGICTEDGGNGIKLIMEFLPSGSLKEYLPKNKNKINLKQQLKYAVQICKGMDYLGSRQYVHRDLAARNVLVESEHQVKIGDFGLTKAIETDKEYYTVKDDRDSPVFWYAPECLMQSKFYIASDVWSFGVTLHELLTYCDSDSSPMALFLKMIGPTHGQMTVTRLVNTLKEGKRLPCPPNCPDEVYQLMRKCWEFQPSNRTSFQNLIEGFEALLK

Compound: O=c1[nH]ccc2cc(F)c(NS(=O)(=O)c3ccc(N4CC[C@@H](O)C4)s3)cc12 [LSN3213128, N-(6-Fluoro-1-oxo-1,2-dihydroisoquinolin-7-yl)-5-[(3R)-3-hydroxypyrrolidin-1-yl]thiophene-2-sulfonamide]
- EC50 [1, 12]: 2500 nM
- EC50 [1, 13]: 2 nM
- EC50 ([2]; SW-620, RPMI media, read-out: ZMP EC50 Regular folate): 600 nM
- EC50 ([2]; SW-620, low folate RPMI media, read-out: ZMP EC50 Low folate): 4.3 ± 0.9 nM
- EC50 [3, 12]: 369 ± 44 nM
- EC50 [3, 13]: 2.7 ± 3.3 nM
- EC50 [4, 12]: 1700 nM
- EC50 [4, 13]: 4.2 nM
- inhibition at 0.2 µM ([5]; @ 0.2 uM): 4.41%
- inhibition at 2 µM ([5]; @ 2 uM): 13.9%
- inhibition at 20 µM ([5]; @ 20 uM): 20.3%
- inhibition at 0.2 µM ([6]; @ 0.2 uM): 0.638%
- inhibition at 2 µM ([6]; @ 2 uM): 8.18%
- inhibition at 20 µM ([6]; @ 20 uM): 11.4%
- inhibition at 0.2 µM ([7]; @ 0.2 uM): -9.3%
- inhibition at 2 µM ([7]; @ 2 uM): 0.634%
- inhibition at 20 µM ([7]; @ 20 uM): 10.3%
- inhibition at 0.2 µM ([8]; @ 0.2 uM): -0.699%
- inhibition at 2 µM ([8]; @ 2 uM): 5.67%
- inhibition at 20 µM ([8]; @ 20 uM): 13%
- inhibition at 0.2 µM ([9]; @ 0.2 uM): -1.93%
- inhibition at 2 µM ([9]; @ 2 uM): 4.7%
- inhibition at 20 µM ([9]; @ 20 uM): 5.92%
- inhibition at 0.2 µM ([10]; @ 0.2 uM): 3.36%
- inhibition at 2 µM ([10]; @ 2 uM): 18%
- inhibition at 20 µM ([10]; @ 20 uM): 11.1%
- inhibition at 0.2 µM ([11]; @ 0.2 uM): -1.48%
- inhibition at 2 µM ([11]; @ 2 uM): 5.53%
- inhibition at 20 µM ([11]; @ 20 uM): 46.6%
